Test results published in patent US4978751A, “Low-calorie sweeteners of fructosyl oligosaccharides and the food or dietetic products or drinks containing them” (Roussel-Ulcaf, priority 1988, dated 1990).

What was measured:
[1] = in vitro; format: in vitro ADME; conditions: human, jejunal mucous homogenate
Experimental: (§1) The preparation is identical to that given in Example 2, paragraph 2.1. The jejunal mucous (about 40 mg) is homogenized in the presence of a 0.9% aqueous solution of NaCl (weight/volume) using a "Polytron" type homogenizer. The homogenate is then brought to 12 ml (with the 0.9% solution of NaCl). The reaction mixture containing 2 ml of fructosyl oligosaccharide solution and 2 ml of homogenate is incubated for 24 hours at 37° C. under magnetic agitation. Samples are taken at regular intervals and the intestinal enzymes are thermally inactivated. A parallel test is carried out on a control solution containing saccharose. […] [formula]

[2] = test system: homogenate of human jejunal mucous; assay: in vitro; format: in vitro ADME; conditions: 0 min
Experimental: as §1

[3] = test system: alpha amylase of human saliva; assay: Hydrolysis test with alpha amylase of human saliva; format: in vitro ADME; conditions: substrate 3 g/liter, pH 7.0, 17.8 units enzyme, 2 hours at 37° C.
Experimental: After 2 hours, the reaction is stopped by heating.

[4] = in vitro; conditions: rat, jejunum homogenate, pH 6
Experimental: (§2) 5 cm of jejunum is removed from a male Sprague Dawley rat (previously put on a diet for 25 hours) and rinsed with a solution of physiological serum.
(§3) The jejunum (weighing about 150 mg) is pulverized in the presence of 0.9% NaCl (w/v) using a "Polytron" type homogenizer then the pulverized product is brought to 10 ml (with 0.9% NaCl solution).
(§4) The reaction mixture containing 2 ml of fructosyl oligosaccharide solution and 2 ml of homogenate is incubated for 24 hours at 37° C., under magnetic agitation.
(§5) In a second series of tests, the evolution of the composition of the fructosyl oligosaccharide is followed over a period of time by inverse plane HPLC (Nucleosil C18 column--eluent: water), the control sugar still being saccharose.

[5] = test system: homogenate of the jejunum of a rat; assay: in vitro; conditions: 0 min, pH 6
Experimental: as §2, §3, §4, §5

[6] = in vitro; format: in vitro ADME; conditions: rat, jejunum homogenate, pH 6
Experimental: (§6) Then the products are dissolved in a 0.05M sodium phosphate (buffer pH 6.0), so as to have a molar concentration of […]. […] The reaction mixture containing 2 ml of fructosyl oligosaccharide solution and 2 ml of homogenate is incubated for 24 hours at 37° C., under magnetic agitation. Samples are taken at regular intervals, and the intestinal enzymes are thermally inactivated. A parallel test is carried out on a control solution containing saccharose.

[7] = test system: homogenate of the jejunum of a rat; assay: in vitro; format: in vitro ADME; conditions: 0 min, pH 6
Experimental: as §6

[8] = test system: alpha amylase from the pancreas of a pig; assay: Hydrolysis test with alpha amylase of the pancreas of a pig; conditions: substrate 3 g/liter, pH 7.0, 19 units enzyme, 2 hours at 37° C.
Experimental: The product is then dissolved is a 0.1M sodium phosphate buffer, (pH 7.0), so as to obtain a final concentration of 3 g/liter of fructosyl oligosaccharide. A mixture containing 2 ml of fructosyl oligosaccharide solution (prepared as above in 1.1) and 19 units of alpha amylase from the pancreas of a pig (SIGMA Ref […]) is incubated for 2 hours at 37° C. The reaction is stopped by heating. The glucose which has appeared is measured by the enzymatic method with glucose oxidase/peroxidase (Boehringer test Ref. 124036). A control test is carried out with maltodextrins, type glucidex 21 (Societe Roquette, France). The results are given in micromoles of glucose formed per enzyme unit and per hour.

metabolised at 10 h [1] [%]	metabolised at 24 h [1] [%]	DH % (degree of hydrolysis) [2] [%]	Activity of the alpha amylase of human saliva [3]	remaining at 8.5 h [4] [%]	remaining at 24 h [4] [%]	Composition in carbohydrate %: Cellobiofructose [5] [%]	metabolised at 8.5 h [6] [%]	metabolised at 17.5 h [6] [%]	metabolised at 24 h [6] [%]	DH % (degree of hydrolysis) [7] [%]	Activity of the alpha amylase from the pancreas of a pig [8]	Composition in carbohydrate %: Saccharose [5] [%]	Composition in carbohydrate %: Gentiobiofructose [5] [%]	Structure (SMILES)
0	0	0	0 micromoles of glucose formed p	97	93.6	100	0	3.7	5.4	0	0 micromoles of glucose formed p	–	–	OC[C@H]1O[C@@](CO)(O[C@H]2O[C@H](CO)[C@@H](O[C@@H]3O[C@H](CO)[C@@H](O)[C@H](O)[C@H]3O)[C@H](O)[C@H]2O)[C@@H](O)[C@@H]1O [Cellobiofructose, cellobiofructose]
57.1	88	0	–	–	4	–	57.6	66.7	92.7	0	–	100	–	OC[C@H]1O[C@@](CO)(O[C@H]2O[C@H](CO)[C@@H](O)[C@H](O)[C@H]2O)[C@@H](O)[C@@H]1O [Saccharose, saccharose, reference compound]
0	0	0	0 micromoles of glucose formed p	100	99.6	–	0	0.4	0.4	0	0 micromoles of glucose formed p	–	100	OC[C@H]1O[C@@](CO)(O[C@H]2O[C@H](CO[C@@H]3O[C@H](CO)[C@@H](O)[C@H](O)[C@H]3O)[C@@H](O)[C@H](O)[C@H]2O)[C@@H](O)[C@@H]1O [Gentiobiofructose, gentiobiofructose]
